In patent US9388140B2, “Substituted benzimidazoles” (priority 2011, dated 2016):

Each compound was assayed against human kinase Mps-1 (Homo sapiens (Human), UniProt P33981) (assay: Mps-1 kinase assay (TR-FRET)). Details: N-terminally GST-tagged human full length recombinant Mps-1; 10 μM ATP; 1 μM biotinylated peptide substrate; read-out: Mps1 IC50.
Chain of human kinase Mps-1 (P33981 whole entry): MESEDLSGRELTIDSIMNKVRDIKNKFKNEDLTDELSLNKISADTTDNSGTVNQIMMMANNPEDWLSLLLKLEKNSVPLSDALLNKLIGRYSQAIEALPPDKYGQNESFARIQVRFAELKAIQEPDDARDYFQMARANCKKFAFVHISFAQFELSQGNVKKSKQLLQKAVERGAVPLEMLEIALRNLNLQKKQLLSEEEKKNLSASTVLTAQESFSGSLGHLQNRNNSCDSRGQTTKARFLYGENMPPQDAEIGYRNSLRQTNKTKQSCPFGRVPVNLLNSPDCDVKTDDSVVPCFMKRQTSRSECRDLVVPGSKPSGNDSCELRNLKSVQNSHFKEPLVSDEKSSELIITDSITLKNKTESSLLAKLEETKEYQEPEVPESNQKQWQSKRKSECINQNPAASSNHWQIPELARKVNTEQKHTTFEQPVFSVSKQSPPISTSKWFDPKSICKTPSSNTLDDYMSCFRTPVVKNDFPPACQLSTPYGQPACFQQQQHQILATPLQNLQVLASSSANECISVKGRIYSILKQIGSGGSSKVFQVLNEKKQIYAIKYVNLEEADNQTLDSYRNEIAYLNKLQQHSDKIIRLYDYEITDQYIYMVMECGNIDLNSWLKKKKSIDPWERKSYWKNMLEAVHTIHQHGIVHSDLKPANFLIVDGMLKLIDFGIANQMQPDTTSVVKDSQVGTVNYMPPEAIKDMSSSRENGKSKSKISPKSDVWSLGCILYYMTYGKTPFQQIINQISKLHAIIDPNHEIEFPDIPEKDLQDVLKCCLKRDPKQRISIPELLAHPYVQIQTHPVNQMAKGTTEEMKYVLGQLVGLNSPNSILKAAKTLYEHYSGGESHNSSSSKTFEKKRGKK
Assay type: biochemical
Description: The human kinase Mps-1 phosphorylates a biotinylated substrate peptide. Detection of the phosphorylated product is achieved by time-resolved fluorescence resonance energy transfer (TR-FRET) from Europium-labelled anti-phospho-Serine/Threonine antibody as donor to streptavidin labelled with cross-linked allophycocyanin (SA-XLent) as acceptor. Compounds are tested for their inhibition of the kinase activity.
N-terminally GST-tagged human full length recombinant Mps-1 kinase (purchased from Invitrogen, Karslruhe, Germany, cat. no PV4071) was used. As substrate for the kinase reaction a biotinylated peptide of the amino-acid sequence […] (C-terminus in amide form, purchased from Biosynthan GmbH, Berlin) was used.
The concentration of Mps-1 in the assay was adjusted to the activity of the enzyme lot and was chosen appropriate to have the assay in the linear range, typical enzyme concentrations were in the range of about 1 nM (final conc. in the 5 μl assay volume).
The resulting mixture was incubated 1 h at 22° C. to allow the binding of the phosphorylated peptide to the anti-phospho(Ser/Thr)-Europium-antibody. Subsequently the amount of phosphorylated substrate was evaluated by measurement of the resonance energy transfer from the Europium-labelled anti-phospho(Ser/Thr) antibody to the Streptavidin-XLent.
Work on `CCNC(=O)c1ccc(-n2cnc3c(NCCC(F)(F)F)cc(Oc4ccccc4O)cc32)cc1C` [Example 55, N-ethyl-4-{6-(2-hydroxyphenoxy)-4-[(3,3,3-trifluoropropyl)amino]-1H-benzimidazol-1-yl}-2-methylbenzamide] yielded an IC50 of 0.7 nM. For `CNC(=O)c1ccc(-n2cnc3c(NCCC(F)(F)F)cc(Oc4ccccc4O)cc32)cc1C` [Example 56, 4-{6-(2-hydroxyphenoxy)-4-[(3,3,3-trifluoropropyl)amino]-1H-benzimidazol-1-yl}-N,2-dimethylbenzamide], the IC50 was 0.3 nM. Compound `COc1c(F)cccc1Oc1cc(NCCC(F)(F)F)c2ncn(-c3ccc(C(=O)NC4CC4)c(C)c3)c2c1` [Example 57, N-cyclopropyl-4-{6-(3-fluoro-2-methoxyphenoxy)-4-[(3,3,3-trifluoropropyl)amino]-1H-benzimidazol-1-yl}-2-methylbenzamide] has an IC50 of 6.8 nM. `Cc1cc(-n2cnc3c(NCCC(F)(F)F)cc(Oc4cccc(OC(F)(F)F)c4)cc32)ccc1C(=O)NC1CC1` [Example 59, N-cyclopropyl-2-methyl-4-{6-[3-(trifluoromethoxy)phenoxy]-4-[(3,3,3-trifluoropropyl)amino]-1H-benzimidazol-1-yl}benzamide] showed an IC50 of 11.9 nM. `Cc1cc(-n2cnc3c(NCCC(F)(F)F)cc(Oc4ccc(N5CCOCC5)cc4)cc32)ccc1C(=O)NC1CC1` [Example 60, N-cyclopropyl-2-methyl-4-{6-[4-(morpholin-4-yl)phenoxy]-4-[(3,3,3-trifluoropropyl)amino]-1H-benzimidazol-1-yl}benzamide] gave an IC50 of 11.5 nM. `Cc1cc(-n2cnc3c(NCCC(F)(F)F)cc(Oc4ccc(OC(F)F)cc4)cc32)ccc1C(=O)NC1CC1` [Example 61, N-cyclopropyl-4-{6-[4-(difluoromethoxy)phenoxy]-4-[(3,3,3-trifluoropropyl)amino]-1H-benzimidazol-1-yl}-2-methylbenzamide] gave an IC50 of 1.3 nM. Work on `Cc1cc(-n2cnc3c(NCCC(F)(F)F)cc(Oc4cccc(OC(F)F)c4)cc32)ccc1C(=O)NC1CC1` [Example 62, N-cyclopropyl-4-{6-[3-(difluoromethoxy)phenoxy]-4-[(3,3,3-trifluoropropyl)amino]-1H-benzimidazol-1-yl}-2-methylbenzamide] yielded an IC50 of 3.2 nM. `COc1ccccc1Nc1cc(NCCC(F)(F)F)c2ncn(-c3ccc(C(=O)NC4CC4)c(C)c3)c2c1` [Example 63, N-cyclopropyl-4-{6-[(2-methoxyphenyl)amino]-4-[(3,3,3-trifluoropropyl)amino]-1H-benzimidazol-1-yl}-2-methylbenzamide] was tested, and the IC50 was 18.9 nM. For `Cc1cc(-n2cnc3c(NCCC(F)(F)F)cc(Oc4cccc(S(C)(=O)=O)c4)cc32)ccc1C(=O)NC1CC1` [Example 64, N-cyclopropyl-2-methyl-4-{6-[3-(methylsulfonyl)phenoxy]-4-[(3,3,3-trifluoropropyl)amino]-1H-benzimidazol-1-yl}benzamide], the IC50 was 2.6 nM. `COc1cccc(Nc2cc(NCCC(F)(F)F)c3ncn(-c4ccc(C(=O)NC5CC5)c(C)c4)c3c2)c1C` [Example 65, N-cyclopropyl-4-{6-[(3-methoxy-2-methylphenyl)amino]-4-[(3,3,3-trifluoropropyl)amino]-1H-benzimidazol-1-yl}-2-methylbenzamide] showed an IC50 of 2.8 nM. Work on `CCNC(=O)c1ccc(-n2cnc3c(NCCC(F)(F)F)cc(Oc4cccc(F)c4F)cc32)cc1C` [Example 66, 4-{6-(2,3-difluorophenoxy)-4-[(3,3,3-trifluoropropyl)amino]-1H-benzimidazol-1-yl}-N-ethyl-2-methylbenzamide] yielded an IC50 of 2.1 nM. With `CNC(=O)c1ccc(-n2cnc3c(NCCC(F)(F)F)cc(Oc4cccc(F)c4F)cc32)cc1C` [Example 67, 4-{6-(2,3-difluorophenoxy)-4-[(3,3,3-trifluoropropyl)amino]-1H-benzimidazol-1-yl}-N,2-dimethylbenzamide] the IC50 was 1 nM. Compound `CNC(=O)c1ccc(-n2cnc3c(NCCC(F)(F)F)cc(Oc4cccc(OC)c4)cc32)cc1C` [Example 68, 4-{6-(3-methoxyphenoxy)-4-[(3,3,3-trifluoropropyl)amino]-1H-benzimidazol-1-yl}-N, 2-dimethylbenzamide] has an IC50 of 8.8 nM. `CCNC(=O)c1ccc(-n2cnc3c(NCCC(F)(F)F)cc(Oc4cccc(OC)c4)cc32)cc1C` [Example 69, N-ethyl-4-{6-(3-methoxyphenoxy)-4-[(3,3,3-trifluoropropyl)amino]-1H-benzimidazol-1-yl}-2-methylbenzamide] showed an IC50 of 25.9 nM. Work on `COc1cccc(Oc2cc(NCCC(F)(F)F)c3ncn(-c4ccc(C(=O)NC5CC5)c(C)c4)c3c2)c1` [Example 70, N-cyclopropyl-4-{6-(3-methoxyphenoxy)-4-[(3,3,3-trifluoropropyl)amino]-1H-benzimidazol-1-yl}-2-methylbenzamide] yielded an IC50 of 2 nM. `CCNC(=O)c1ccc(-n2cnc3c(NCCC(F)(F)F)cc(Oc4cccc(F)c4OC)cc32)cc1C` [Example 71, N-ethyl-4-{6-(3-fluoro-2-methoxyphenoxy)-4-[(3,3,3-trifluoropropyl)amino]-1H-benzimidazol-1-yl}-2-methylbenzamide] gave an IC50 of 28.5 nM. With `CNC(=O)c1ccc(-n2cnc3c(NCCC(F)(F)F)cc(Oc4cccc(F)c4OC)cc32)cc1C` [Example 72, 4-{6-(3-fluoro-2-methoxyphenoxy)-4-[(3,3,3-trifluoropropyl)amino]-1H-benzimidazol-1-yl}-N,2-dimethylbenzamide] the IC50 was 33 nM. Compound `COc1cc(C#N)ccc1Oc1cc(NCCC(F)(F)F)c2ncn(-c3ccc(C(=O)NC4CC4)c(C)c3)c2c1` [Example 73, 4-{6-(4-cyano-2-methoxyphenoxy)-4-[(3,3,3-trifluoropropyl)amino]-1H-benzimidazol-1-yl}-N-cyclopropyl-2-methylbenzamide] has an IC50 of 52.2 nM. In the case of `Cc1cc(-n2cnc3c(NCCC(F)(F)F)cc(Oc4ccc(S(C)(=O)=O)cc4)cc32)ccc1C(=O)NC1CC1` [Example 74, N-cyclopropyl-2-methyl-4-{6-[4-(methylsulfonyl)phenoxy]-4-[(3,3,3-trifluoropropyl)amino]-1H-benzimidazol-1-yl}benzamide], the IC50 is reported as 6.4 nM. In the case of `Cc1cc(-n2cnc3c(NCCC(F)(F)F)cc(Oc4ccc(-c5ncco5)cc4)cc32)ccc1C(=O)NC1CC1` [Example 75, N-cyclopropyl-2-methyl-4-{6-[4-(1,3-oxazol-2-yl)phenoxy]-4-[(3,3,3-trifluoropropyl)amino]-1H-benzimidazol-1-yl}benzamide], the IC50 is reported as 21.9 nM. `Cc1cc(-n2cnc3c(NCCC(F)(F)F)cc(Oc4ccc(F)c(C(F)(F)F)c4)cc32)ccc1C(=O)NC1CC1` [Example 76, N-cyclopropyl-4-{6-[4-fluoro-3-(trifluoromethyl)phenoxy]-4-[(3,3,3-trifluoropropyl)amino]-1H-benzimidazol-1-yl}-2-methylbenzamide] gave an IC50 of 7.2 nM. `Cc1cc(-n2cnc3c(NCCC(F)(F)F)cc(Oc4cccc(C#N)c4)cc32)ccc1C(=O)NC1CC1` [Example 77, 4-{6-(3-cyanophenoxy)-4-[(3,3,3-trifluoropropyl)amino]-1H-benzimidazol-1-yl}-N-cyclopropyl-2-methylbenzamide] was tested, and the IC50 was 1 nM. With `Cc1cc(-n2cnc3c(NCCC(F)(F)F)cc(Oc4ccc(-n5cncn5)cc4)cc32)ccc1C(=O)NC1CC1` [Example 78, N-cyclopropyl-2-methyl-4-{6-[4-(1H-1,2,4-triazol-1-yl)phenoxy]-4-[(3,3,3-trifluoropropyl)amino]-1H-benzimidazol-1-yl}benzamide] the IC50 was 11 nM. `Cc1cc(-n2cnc3c(NCCC(F)(F)F)cc(Oc4cccc(C(=O)NC5CC5)c4)cc32)ccc1C(=O)NC1CC1` [Example 79, N-cyclopropyl-4-{6-[3-(cyclopropylcarbamoyl)phenoxy]-4-[(3,3,3-trifluoropropyl)amino]-1H-benzimidazol-1-yl}-2-methylbenzamide] was tested, and the IC50 was 3.9 nM. Compound `Cc1cc(-n2cnc3c(NCCC(F)(F)F)cc(Nc4ccccc4O)cc32)ccc1C(=O)NC1CC1` [Example 82, N-cyclopropyl-4-{6-[(2-hydroxyphenyl)amino]-4-[(3,3,3-trifluoropropyl)amino]-1H-benzimidazol-1-yl}-2-methylbenzamide] has an IC50 of 3.9 nM. `Cc1cc(-n2cnc3c(NCCC(F)(F)F)cc(Oc4ccc(O)c(F)c4)cc32)ccc1C(=O)NC1CC1` [Example 83, N-cyclopropyl-4-{6-(3-fluoro-4-hydroxyphenoxy)-4-[(3,3,3-trifluoropropyl)amino]-1H-benzimidazol-1-yl}-2-methylbenzamide] showed an IC50 of 0.7 nM. `CNC(=O)c1ccc(-n2cnc3c(NCC4CCOCC4)cc(Oc4cccc(F)c4F)cc32)cc1C` [Example 84, 4-{6-(2,3-difluorophenoxy)-4-[(tetrahydro-2H-pyran-4-ylmethyl)amino]-1H-benzimidazol-1-yl}-N,2-dimethylbenzamide] was tested, and the IC50 was 3.4 nM. `CCNC(=O)c1ccc(-n2cnc3c(NCC4CCOCC4)cc(Oc4cccc(F)c4F)cc32)cc1C` [Example 85, 4-{6-(2,3-Difluorophenoxy)-4-[(tetrahydro-2H-pyran-4-ylmethyl)amino]-1H-benzimidazol-1-yl}-N-ethyl-2-methylbenzamide] gave an IC50 of 3.3 nM. `CNC(=O)c1ccc(-n2cnc3c(NCC4CCOCC4)cc(Oc4ccc(OC)cc4F)cc32)cc1C` [Example 86, 4-{6-(2-fluoro-4-methoxyphenoxy)-4-[(tetrahydro-2H-pyran-4-ylmethyl)amino]-1H-benzimidazol-1-yl}-N,2-dimethylbenzamide] showed an IC50 of 7 nM.
